From ChEMBL document CHEMBL1201862, “PubChem BioAssay data set” (2004)
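In this assay, cells in 96-well plates receive the compound at five concentrations for 48 hours. Endpoints are linearly interpolated between the surrounding concentrations. GI50: concentration for 50% inhibition of growth.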 Calls of active or inactive are those of the source. No stated cut-off is given here; in the data, active = GI50 up to about 1.1 µM and inactive = higher.

What was measured:
Assay in all cases: DTP human tumour cell line panel, 48 h
NCI-H460 = system: NCI-H460
UACC-257 = system: UACC-257
U-251 = system: U-251
NCI-H522 = system: NCI-H522
HCT-15 = system: HCT-15
HOP-92 = system: HOP-92
HCC 2998 = system: HCC 2998
RXF 393 = system: RXF 393
SF-268 = system: SF-268
HOP-62 = system: HOP-62
OVCAR-8 = system: OVCAR-8
MDA-N = system: MDA-N
CAKI-1 = system: CAKI-1
SN12C = system: SN12C
NCI-H23 = system: NCI-H23
COLO 205 = system: COLO 205
MDA-MB-231 = system: MDA-MB-231
Malme-3M = system: Malme-3M
RPMI-8226 = system: RPMI-8226
DU-145 = system: DU-145
ACHN = system: ACHN
OVCAR-3 = system: OVCAR-3
SNB-19 = system: SNB-19
SF-539 = system: SF-539
OVCAR-5 = system: OVCAR-5
A549 = system: A549
LOX IMVI = system: LOX IMVI
SF-295 = system: SF-295
M14 = system: M14
OVCAR-4 = system: OVCAR-4
CCRF-CEM = system: CCRF-CEM
NCI-H226 = system: NCI-H226
NCI/ADR-RES = system: NCI/ADR-RES
MDA-MB-435 = system: MDA-MB-435
SK-MEL-28 = system: SK-MEL-28
SK-MEL-5 = system: SK-MEL-5
TK-10 = system: TK-10
SK-OV-3 = system: SK-OV-3
SW-620 = system: SW-620
MOLT-4 = system: MOLT-4
IGROV-1 = system: IGROV-1
KM12 = system: KM12
Hs-578T = system: Hs-578T
HCT-116 = system: HCT-116
EKVX = system: EKVX
PC-3 = system: PC-3
HT-29 = system: HT-29
SK-MEL-2 = system: SK-MEL-2
T47D = system: T47D
786-0 = system: 786-0
K562 = system: K562
A498 = system: A498
UO-31 = system: UO-31
MCF7 = system: MCF7
UACC-62 = system: UACC-62
SR = system: SR
HL-60 = system: HL-60
SNB-75 = system: SNB-75

N#Cc1nnc2c3c(-c4ccc(Cl)cc4)c(C#N)c(O)nc3nn2c1N
GI50 (NCI-H460): 9.14 µM (inactive) | GI50 (UACC-257): 15.4 µM (inactive) | GI50 (U-251): 1.28 µM (inactive) | GI50 (NCI-H522): 1.62 µM (inactive) | GI50 (HCT-15): 8.83 µM | GI50 (HOP-92): 5.2 µM (inactive) | GI50 (HCC 2998): 3.14 µM (inactive) | GI50 (RXF 393): 3.98 µM (inactive) | GI50 (SF-268): 3.26 µM (inactive) | GI50 (HOP-62): 4.79 µM (inactive) | GI50 (OVCAR-8): 4.92 µM (inactive) | GI50 (MDA-N): 3.61 µM (inactive) | GI50 (CAKI-1): 5.6 µM (inactive) | GI50 (SN12C): 2.38 µM (inactive) | GI50 (NCI-H23): 5.81 µM (inactive) | GI50 (COLO 205): 11.7 µM (inactive) | GI50 (MDA-MB-231): 13.4 µM (inactive) | GI50 (Malme-3M): 14.4 µM (inactive) | GI50 (RPMI-8226): 8.05 µM (inactive) | GI50 (DU-145): 3.88 µM (inactive) | GI50 (ACHN): 8.11 µM (inactive) | GI50 (OVCAR-3): 3.27 µM (inactive) | GI50 (SNB-19): 3.25 µM (inactive) | GI50 (SF-539): 2.88 µM (inactive) | GI50 (OVCAR-5): 24.8 µM (inactive) | GI50 (A549): 21.1 µM (inactive) | GI50 (LOX IMVI): 2.85 µM (inactive) | GI50 (SF-295): 5.3 µM (inactive) | GI50 (M14): 6.89 µM (inactive) | GI50 (OVCAR-4): 14.9 µM (inactive) | GI50 (CCRF-CEM): 3.63 µM (inactive) | GI50 (NCI-H226): 9.55 µM (inactive) | GI50 (NCI/ADR-RES): 18.4 µM (inactive) | GI50 (MDA-MB-435): 8.69 µM (inactive) | GI50 (SK-MEL-28): 11.9 µM (inactive) | GI50 (SK-MEL-5): 6.71 µM (inactive) | GI50 (TK-10): 22.6 µM (inactive) | GI50 (SK-OV-3): 4.61 µM (inactive) | GI50 (SW-620): 5.46 µM (inactive) | GI50 (MOLT-4): 2.62 µM (inactive) | GI50 (IGROV-1): 2.61 µM (inactive) | GI50 (KM12): 11.9 µM (inactive) | GI50 (Hs-578T): 3.4 µM (inactive) | GI50 (HCT-116): 3.51 µM (inactive) | GI50 (EKVX): 12.9 µM (inactive) | GI50 (PC-3): 1.45 µM (inactive) | GI50 (HT-29): 5 µM (inactive) | GI50 (SK-MEL-2): 9.84 µM (inactive) | GI50 (T47D): 1.17 µM (inactive) | GI50 (786-0): 5.14 µM (inactive) | GI50 (K562): 7.33 µM (inactive) | GI50 (A498): 2.77 µM (inactive) | GI50 (UO-31): 6.25 µM (inactive) | GI50 (MCF7): 2.06 µM (inactive) | GI50 (UACC-62): 1.85 µM (inactive) | GI50 (SR): 2.14 µM (inactive)

NC(N)=NCc1ccc2c(c1)OCO2
GI50 (NCI-H460): > 100 µM (inactive) | GI50 (U-251): > 100 µM (inactive) | GI50 (NCI-H522): > 100 µM (inactive) | GI50 (HCT-15): > 100 µM | GI50 (HOP-92): 54.1 µM (inactive) | GI50 (HCC 2998): > 100 µM (inactive) | GI50 (RXF 393): 55.3 µM (inactive) | GI50 (SF-268): > 100 µM (inactive) | GI50 (HOP-62): > 100 µM (inactive) | GI50 (MDA-N): > 100 µM (inactive) | GI50 (CAKI-1): 44.9 µM (inactive) | GI50 (NCI-H23): 61.1 µM (inactive) | GI50 (MDA-MB-231): 95.3 µM (inactive) | GI50 (Malme-3M): 31.1 µM (inactive) | GI50 (RPMI-8226): 74 µM (inactive) | GI50 (DU-145): > 100 µM (inactive) | GI50 (ACHN): 65.5 µM (inactive) | GI50 (OVCAR-3): 97.3 µM (inactive) | GI50 (HL-60): 60.3 µM (inactive) | GI50 (SNB-19): > 100 µM (inactive) | GI50 (SF-539): 42.7 µM (inactive) | GI50 (OVCAR-5): > 100 µM (inactive) | GI50 (A549): > 100 µM (inactive) | GI50 (LOX IMVI): > 100 µM (inactive) | GI50 (SF-295): 67 µM (inactive) | GI50 (M14): > 100 µM (inactive) | GI50 (OVCAR-4): > 100 µM (inactive) | GI50 (CCRF-CEM): 94 µM (inactive) | GI50 (NCI/ADR-RES): > 100 µM (inactive) | GI50 (MDA-MB-435): 73.1 µM (inactive) | GI50 (SNB-75): > 100 µM (inactive) | GI50 (SK-MEL-28): 67.3 µM (inactive) | GI50 (SK-MEL-5): 24 µM (inactive) | GI50 (TK-10): > 100 µM (inactive) | GI50 (SK-OV-3): > 100 µM (inactive) | GI50 (SW-620): > 100 µM (inactive) | GI50 (MOLT-4): > 100 µM (inactive) | GI50 (IGROV-1): > 100 µM (inactive) | GI50 (KM12): 50 µM (inactive) | GI50 (Hs-578T): > 100 µM (inactive) | GI50 (HCT-116): 78.3 µM (inactive) | GI50 (EKVX): > 100 µM (inactive) | GI50 (PC-3): > 100 µM (inactive) | GI50 (HT-29): 72.9 µM (inactive) | GI50 (SK-MEL-2): > 100 µM (inactive) | GI50 (T47D): > 100 µM (inactive) | GI50 (786-0): 50.1 µM (inactive) | GI50 (K562): > 100 µM (inactive) | GI50 (A498): 28.2 µM (inactive) | GI50 (UO-31): > 100 µM (inactive) | GI50 (UACC-62): > 100 µM (inactive) | GI50 (SR): > 100 µM (inactive)
